How the values were obtained:
[1] = system: St. aureus; test: Preservative challenge test; type: cell-based; parameters: key: k. W.: k.W.: kein Wachstum; conditions: 0,1 mg/ml, pH 6, inoculum 1,4•10^6/ml
Source text: (§1) Die konservierende Wirkung der Verbindungen der Formel I wird z.B. aus den Ergebnissen des folgenden Konservierungsmittelbelastungstests deutlich: […]

[2] = system: Ps. aeruginosa; test: Preservative challenge test; type: cell-based; parameters: key: k. W.: k.W.: kein Wachstum; conditions: 0,1 mg/ml, pH 6, inoculum 1,1•10^6/ml
Source text: as §1

[3] = system: E. coli; test: Preservative challenge test; type: cell-based; parameters: key to Reduktion des Wachstums: k. W.: k.W.: kein Wachstum; conditions: 0,1 mg/ml, pH 6, inoculum 1,5•10^6/ml
Source text: as §1

[4] = system: C. albicans; test: Preservative challenge test; type: cell-based; parameters: key to Reduktion des Wachstums: k. W.: k.W.: kein Wachstum; conditions: 0,1 mg/ml, pH 6, inoculum 9,9•10^5/ml
Source text: as §1

[5] = 5-day ocular tolerance test in animals; type: in vivo, Kaninchen
Source text: Die überraschenderweise verbesserte Augenverträglichkeit der Verbindungen der Formel I im Vergleich zu Benzalkoniumchlorid wird z.B. aus den Ergebnissen der im folgenden beschriebenen 5-Tage-Verträglichkeitsprüfung beim Tier deutlich: Verglichen wurden jeweils 0,01 %-ige Lösungen von Benzoxoniumchlorid und Benzalkoniumchlorid. Diese Lösungen wurden 5 Tage lang fünfmal (in 90 Minuten-Invervallen) in den Konjunktivalsack von Kaninchen eingetropft. Am Ende des Versuchs wurden die behandelten Augen auf Klinische Befunde, wie z.B. Rötungen der Konjunktiva, Korneatrübungen, Sekretion und Bindehautschwellungen, untersucht. Dabei ergaben sich die folgenden Resultate: Brenzoxoniumchlorid (≙ Verbindung der Formel I), 0,01 % 5 Instillationen/Tier/Tag im Abstand von jeweils 90 min keine Befunde Benzalkoniumchlorid (≙ Vergleichsverbindung), 0,01 % 5 Instillationen/Tier/Tag im Abstand von jeweils 90 min 4 Befunde

[6] = 4-week ocular local tolerance study in rabbits; type: in vivo, pigmentierte Himalayakaninchen; conditions: 0,01 % solution, 50 µl ten times daily at 45 min intervals into conjunctival sac of right eye for 4 weeks; histopathology at end; animals with conjunctival lesions and acanthosis/hyperkeratosis at margin of lower right eyelid
Source text: Die bessere Augenverträglichkeit der Verbindungen der Formel I im Vergleich zu Benzalkoniumchlorid wird z.B. auch aus den Ergebnissen der im folgenden beschriebenen 4 Wochen dauernden okularen, lokalen Verträglichkeitsstudie beim Kaninchen deutlich: Verglichen wurden jeweils 0,01 %-ige Lösungen von N-Benzyl-N-(gemischtes C₈-C₁₈-Alkyl)-N,N-bis-(2-hydroxyethyl)-ammoniumchlorid und Benzalkoniumchlorid. Als Versuchstiere dienten pigmentierte Himalayakaninchen. Diesen wurden 4 Wochen lang zehnmal täglich (in 45 Minuten-Intervallen) jeweils 50 µl der entsprechenden Lösung in den Konjunktivalsack des rechten Auges verabreicht. Zur Kontrolle wurde in das linke Auge jeweils eine Vergleichslösung, die kein Konservierungsmittel enthielt, eingetropft. Die Tiere wurden am ersten und am fünften Behandlungstag ophthalmologisch untersucht. […] Dagegen wurden bei 4 von 6 mit Benzalkoniumchloridlösung behandelten Tieren Läsionen in der Konjunktiva und eine Akanthose und Hyperkeratose am Rand des unteren rechten Augenlids beobachtet. Die Benzalkoniumchloridlösung verursachte demnach Aenderungen am konjunktivalen Epithel, welche bei der erfindungsgemässen Lösung nicht auftraten. Damit ist überzeugend nachgewiesen, dass die Verbindungen der Formel I eine im Vergleich zu Benzalkoniumchlorid überraschend verbesserte Langzeitverträglichkeit im Auge besitzen.

Row | Compound | Reduktion des Wachstums ([1]; contact time 10 min) | Reduktion des Wachstums ([1]; contact time 6 h) | Reduktion des Wachstums ([1]; contact time 24 h) | Reduktion des Wachstums ([2]; contact time 10 min) | Reduktion des Wachstums ([2]; contact time 6 h) | Reduktion des Wachstums ([2]; contact time 24 h) | Reduktion des Wachstums ([3]; contact time 6 h) | Reduktion des Wachstums ([3]; contact time 24 h) | killing at 100 µg/mL ([3]; Escherichia coli, 10 min, contact time 10 min, read-out: Reduktion des Wachstums) [%] | Reduktion des Wachstums ([4]; contact time 6 h) | Reduktion des Wachstums ([4]; contact time 24 h) | killing at 100 µg/mL ([4]; Candida albicans, 10 min, contact time 10 min, read-out: Reduktion des Wachstums) [%] | Klinische Befunde ([5]; 0,01 % solution, 5 instillations/animal/day at 90 min intervals into the conjunctival sac for 5 days, eyes examined at end of test (conjunctival redness, corneal opacity, secretion, conjunctival swelling)) | Klinische Befunde ([5]; in vivo) [Befunde] | okulare Läsionen [6]
1 | CCCCCCCCCCCC[N+](CCO)(CCO)Cc1ccccc1.[Cl-] [Benzoxoniumchlorid, N-Benzyl-N-(n-dodecyl)-N,N-bis-(2-hydroxyethyl)-ammoniumchlorid] | k. W. | k. W. | k. W. | k. W. | k. W. | k. W. | k. W. | k. W. | 100 | k. W. | k. W. | 100 | keine Befunde | – | –
2 | N-Benzyl-N-(C₈-C₁₈-alkyl)-N,N-dimethylammoniumchlorid [Benzalkoniumchlorid, reference compound] | – | – | – | – | – | – | – | – | – | – | – | – | – | 4 | 4 von 6
3 | N-Benzyl-N-(gemischtes C₈-C₁₈-Alkyl)-N,N-bis-(2-hydroxyethyl)-ammoniumchlorid | – | – | – | – | – | – | – | – | – | – | – | – | – | – | keine okularen Läsionen

Source: EP0420798B1, “Antimicrobial compositions” (Ciba Vision AG, Hettlingen, priority 1989, dated 1991)
